Measurements published in patent US10471046B2, “Method for treating, preventing, or reducing the risk of skin infection” (Melinta Subsidiary Corp., priority 2014, dated 2019).
Converted amounts (≈) assume the structure as drawn.

Tested on: S. aureus
Test: Minimum inhibitory concentrations (MICs) for S. aureus of exemplary compounds (Table 2)
Type: cell-based
Conditions: Staphylococcus aureus, minimum inhibitory concentrations for S. aureus; read-out: MICs
In short: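 MICs (μg/mL) against S. aureus come from microtiter-tray dilution susceptibility testing per NCCLS M7-A5, comparing growth with and without compound.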

MIC [µg/mL]	SMILES
1 (≈ 2.21 µM)	CC(=O)NC[C@H]1CN(c2ccc(-c3ccc(SCc4ccncc4)cc3)c(F)c2)C(=O)O1 [Compound 3001, N-{3-[2-Fluoro-4′-(pyridin-4-ylmethylsulfanyl)-biphenyl-4-yl]-2-oxo-oxazolidin-5-(S)-ylmethyl}-acetamide]
4 (≈ 8.01 µM)	CC(=O)NC[C@H]1CN(c2ccc(-c3ccc(S(=O)(=O)Cc4cc[n+]([O-])cc4)cc3)c(F)c2)C(=O)O1 [Compound 3004, N-{3-[2-Fluoro-4′-(1-oxy-pyridin-4-ylmethanesulfonyl)-biphenyl-4-yl]-2-oxo-oxazolidin-5-(S)-ylmethyl}-acetamide]
2 (≈ 4.01 µM)	CC(=O)NC[C@H]1CN(c2ccc(-c3ccc(S(=O)(=O)NCc4ccncc4)cc3)c(F)c2)C(=O)O1 [Compound 3005, N-(3-{2-Fluoro-4′-[(pyridin-4-ylmethyl)-sulfamoyl]-biphenyl-4-yl}-2-oxo-oxazolidin-5-(S)-ylmethyl)-acetamide]
1 (≈ 1.95 µM)	CC(=O)NC[C@H]1CN(c2ccc(-c3ccc(S(=O)(=O)NCCc4ccccn4)cc3)c(F)c2)C(=O)O1 [Compound 3007, N-{3-[2-Fluoro-4′-(2-pyridin-2-yl-ethylsulfamoyl)-biphenyl-4-yl]-2-oxo-oxazolidin-5-(S)-ylmethyl}-acetamide]
128 (≈ 227 µM)	COc1nc(C)c(C=CC(=O)NCc2ccc(-c3ccc(N4C[C@H](CNC(C)=O)OC4=O)cc3F)cc2)c(OC)n1 [Compound 4003, N-{4′-[5-(S)-(Acetylamino-methyl)-2-oxo-oxazolidin-3-yl]-2′-fluoro-biphenyl-4-ylmethyl}-3-(2,4-dimethoxy-6-methyl-pyrimidin-5-yl)-acrylamide]
2 (≈ 3.64 µM)	COc1nc(C)c(/C=C/C(=O)NCc2ccc(-c3ccc(N4C[C@H](CNC(C)=O)OC4=O)cc3F)cc2)c(O)n1 [Compound 4004, N-{4′-[5-(S)-(Acetylamino-methyl)-2-oxo-oxazolidin-3-yl]-2′-fluoro-biphenyl-4-ylmethyl}-3-(4-hydroxy-2-methoxy-6-methyl-pyrimidin-5-yl)-acrylamide]
8 (≈ 16.3 µM)	CC(=O)NC[C@H]1CN(c2ccc(-c3ccc(CNC(=O)/C=C/c4cncnc4)cc3)c(F)c2)C(=O)O1 [Compound 4006, N-{4′-[5-(S)-(Acetylamino-methyl)-2-oxo-oxazolidin-3-yl]-2′-fluoro-biphenyl-4-ylmethyl}-3-pyrimidin-5-yl-acrylamide]
1 (≈ 1.92 µM)	CC(=O)NC[C@H]1CN(c2ccc(-c3ccc(CNC(=O)/C=C/c4cncn(C)c4=O)cc3)c(F)c2)C(=O)O1 [Compound 4007, N-{4′-[5-(S)-(Acetylamino-methyl)-2-oxo-oxazolidin-3-yl]-2′-fluoro-biphenyl-4-ylmethyl}-3-(1-methyl-6-oxo-1,6-dihydro-pyrimidin-5-yl)-acrylamide]
1 (≈ 1.95 µM)	CC(=O)NC[C@H]1CN(c2ccc(-c3ccc(CNC(=O)c4ccnc5ccccc45)cc3)c(F)c2)C(=O)O1 [Compound 4008, Quinoline-4-carboxylic acid {4′-[5-(S)-(acetylamino-methyl)-2-oxo-oxazolidin-3-yl]-2′-fluoro-biphenyl-4-ylmethyl}-amide]
1 (≈ 2.15 µM)	CC(=O)NC[C@H]1CN(c2ccc(-c3ccc(CNC(=O)c4cccn4C)cc3)c(F)c2)C(=O)O1 [Compound 4010, 1-Methyl-1H-pyrrole-2-carboxylic acid {4′-[5-(S)-(acetylamino-methyl)-2-oxo-oxazolidin-3-yl]-2′-fluoro-biphenyl-4-ylmethyl}-amide]
4 (≈ 7.41 µM)	CC(=O)NC[C@H]1CN(c2ccc(-c3ccc(CNC(=O)c4cccc(S(C)(=O)=O)c4)cc3)c(F)c2)C(=O)O1 [Compound 4012, N-{4′-[5-(S)-(Acetylamino-methyl)-2-oxo-oxazolidin-3-yl]-2′-fluoro-biphenyl-4-ylmethyl}-3-methanesulfonyl-benzamide]
4 (≈ 7.54 µM)	COc1ccc2[nH]c(C(=O)NCc3ccc(-c4ccc(N5C[C@H](CNC(C)=O)OC5=O)cc4F)cc3)cc2c1 [Compound 4015, 5-Methoxy-1H-indole-2-carboxylic acid {4′-[5-(S)-(acetylamino-methyl)-2-oxo-oxazolidin-3-yl]-2′-fluoro-biphenyl-4-ylmethyl}-amide]
1 (≈ 2.01 µM)	CC(=O)NC[C@H]1CN(c2ccc(-c3ccc(CNCc4ccnc5ccccc45)cc3)c(F)c2)C(=O)O1 [Compound 4016, N-[3-(2-Fluoro-4′-{[(quinolin-4-ylmethyl)-amino]-methyl}-biphenyl-4-yl)-2-oxo-oxazolidin-5-(S)-ylmethyl]-acetamide]
2 (≈ 3.81 µM)	CC(=O)NC[C@H]1CN(c2ccc(-c3ccc(CNCc4ccc(-c5ccccn5)cc4)cc3)c(F)c2)C(=O)O1 [Compound 4017, N-(3-{2-Fluoro-4′-[(4-pyridin-2-yl-benzylamino)-methyl]-biphenyl-4-yl}-2-oxo-oxazolidin-5-(S)-ylmethyl)-acetamide]
1 (≈ 2.23 µM)	CC(=O)NC[C@H]1CN(c2ccc(-c3ccc(CNCc4ccncc4)cc3)c(F)c2)C(=O)O1 [Compound 4018, N-[3-(2-Fluoro-4′-{[(pyridin-4-ylmethyl)-amino]-methyl}-biphenyl-4-yl)-2-oxo-oxazolidin-5-(S)-ylmethyl]-acetamide]
2 (≈ 4.1 µM)	CC(=O)NC[C@H]1CN(c2ccc(-c3ccc(CNCc4cc5ccccc5o4)cc3)c(F)c2)C(=O)O1 [Compound 4020]
0.25 (≈ 0.501 µM)	CC(=O)NC[C@H]1CN(c2ccc(-c3ccc(CNCc4cnc5ccccc5c4)cc3)c(F)c2)C(=O)O1 [Compound 4021, N-[3-(2-Fluoro-4′-{[(quinolin-3-ylmethyl)-amino]-methyl}-biphenyl-4-yl)-2-oxo-oxazolidin-5-(S)-ylmethyl]-acetamide]

Second part, the compound before the results:

SMILES	MIC [µg/mL]
CC(=O)NC[C@H]1CN(c2ccc(-c3ccc(CNS(=O)(=O)c4ccc(C(F)(F)F)cc4)cc3)c(F)c2)C(=O)O1 [Compound 2058, N-(3-{2-Fluoro-4′-[(4-trifluoromethyl-benzenesulfonylamino)-methyl]-biphenyl-4-yl}-2-oxo-oxazolidin-5-(S)-ylmethyl)-acetamide]	32 (≈ 56.6 µM)
CC(=O)NC[C@H]1CN(c2ccc(-c3ccc(CN[C@H]4CCCNC4=O)cc3)c(F)c2)C(=O)O1 [Compound 2059, N-(3-{2-Fluoro-4′-[(2-oxo-piperidin-3-(S)-ylamino)-methyl]-biphenyl-4-yl}-2-oxo-oxazolidin-5-(S)-ylmethyl)-acetamide]	2 (≈ 4.4 µM)
CC(=O)NC[C@H]1CN(c2ccc(-c3ccc([S+]([O-])Cc4ccncc4)cc3)c(F)c2)C(=O)O1 (stereo partly drawn) [Compound 3002, N-{3-[2-Fluoro-4′-(pyridin-4-ylmethanesulfinyl)-biphenyl-4-yl]-2-oxo-oxazolidin-5-(S)-ylmethyl}-acetamide]	1 (≈ 2.14 µM)
CC(=O)NC[C@H]1CN(c2ccc(-c3ccc(S(=O)(=O)Cc4ccncc4)cc3)c(F)c2)C(=O)O1 [Compound 3003, N-{3-[2-Fluoro-4′-(pyridin-4-ylmethanesulfonyl)-biphenyl-4-yl]-2-oxo-oxazolidin-5-(S)-ylmethyl}-acetamide]	2 (≈ 4.14 µM)
CC(=O)NC[C@H]1CN(c2ccc(-c3ccc(S(=O)(=O)NCc4ccccn4)cc3)c(F)c2)C(=O)O1 [Compound 3006, N-(3-{2-Fluoro-4′-[(pyridin-2-ylmethyl)-sulfamoyl]-biphenyl-4-yl}-2-oxo-oxazolidin-5-(S)-ylmethyl)-acetamide]	16 (≈ 32.1 µM)
CC(=O)NC[C@H]1CN(c2ccc(-c3ccc(CNC(=O)/C=C/c4c(C)[nH]c(=O)[nH]c4=O)cc3)c(F)c2)C(=O)O1 [Compound 4001, N-{4′-[5-(S)-(Acetylamino-methyl)-2-oxo-oxazolidin-3-yl]-2′-fluoro-biphenyl-4-ylmethyl}-3-(6-methyl-2,4-dioxo-1,2,3,4-tetrahydro-pyrimidin-5-yl)-acrylamide]	0.25 (≈ 0.467 µM)
CC(=O)NC[C@H]1CN(c2ccc(-c3ccc(CNC(=O)/C=C/c4cccnc4)cc3)c(F)c2)C(=O)O1 [Compound 4002, N-{4′-[5-(S)-(Acetylamino-methyl)-2-oxo-oxazolidin-3-yl]-2′-fluoro-biphenyl-4-ylmethyl}-3-pyridin-3-yl-acrylamide]	4 (≈ 8.19 µM)
CC(=O)NC[C@H]1CN(c2ccc(-c3ccc(CNC(=O)/C=C/c4cn(C)c(=O)n(C)c4=O)cc3)c(F)c2)C(=O)O1 [Compound 4005, N-{4′-[5-(S)-(Acetylamino-methyl)-2-oxo-oxazolidin-3-yl]-2′-fluoro-biphenyl-4-ylmethyl}-3-(1,3-dimethyl-2,4-dioxo-1,2,3,4-tetrahydro-pyrimidin-5-yl)-acrylamide]	2 (≈ 3.64 µM)
CC(=O)NC[C@H]1CN(c2ccc(-c3ccc(CNC(=O)c4cnc5ccccc5c4)cc3)c(F)c2)C(=O)O1 [Compound 4009, Quinoline-3-carboxylic acid {4′-[5-(S)-(acetylamino-methyl)-2-oxo-oxazolidin-3-yl]-2′-fluoro-biphenyl-4-ylmethyl}-amide]	32 (≈ 62.4 µM)
CC(=O)NC[C@H]1CN(c2ccc(-c3ccc(CNC(=O)c4ccc5cc[nH]c5c4)cc3)c(F)c2)C(=O)O1 [Compound 4011, 1H-Indole-6-carboxylic acid {4′-[5-(S)-(acetylamino-methyl)-2-oxo-oxazolidin-3-yl]-2′-fluoro-biphenyl-4-ylmethyl}-amide]	1 (≈ 2 µM)
CC(=O)NC[C@H]1CN(c2ccc(-c3ccc(CNC(=O)c4ccc(F)cc4)cc3)c(F)c2)C(=O)O1 [Compound 4013, N-{4′-[5-(S)-(Acetylamino-methyl)-2-oxo-oxazolidin-3-yl]-2′-fluoro-biphenyl-4-ylmethyl}-4-fluoro-benzamide]	8 (≈ 16.7 µM)
CC(=O)NC[C@H]1CN(c2ccc(-c3ccc(CNC(=O)c4ccc5c(c4)OCO5)cc3)c(F)c2)C(=O)O1 [Compound 4014, Benzo[1,3]dioxole-5-carboxylic acid {4′-[5-(S)-(acetylamino-methyl)-2-oxo-oxazolidin-3-yl]-2′-fluoro-biphenyl-4-ylmethyl}-amide]	4 (≈ 7.91 µM)
CC(=O)NC[C@H]1CN(c2ccc(-c3ccc(CNCc4ccc5ccccc5n4)cc3)c(F)c2)C(=O)O1 [Compound 4019, N-[3-(2-Fluoro-4′-{[(quinolin-2-ylmethyl)-amino]-methyl}-biphenyl-4-yl)-2-oxo-oxazolidin-5-(S)-ylmethyl]-acetamide]	0.5 (≈ 1 µM)
